Reference: PubChem BioAssay (NCI)
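96-well plates; 48 h exposure; 5 concentrations. Endpoints by linear interpolation between flanking doses. Not reached: highest tested concentration assigned. TGI denotes the concentration required for complete inhibition of growth.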

Assays:
Assay in all cases: NCI tumour cell line growth inhibition, 48 h
OVCAR-8 ovarian = test system: OVCAR-8 ovarian
SNB-75 CNS = test system: SNB-75 CNS
SW-620 colon = test system: SW-620 colon
NCI-H460 lung = test system: NCI-H460 lung
SK-OV-3 ovarian = test system: SK-OV-3 ovarian
UO-31 renal = test system: UO-31 renal
SF-268 CNS = test system: SF-268 CNS
NCI-H23 lung = test system: NCI-H23 lung
SF-539 CNS = test system: SF-539 CNS
CAKI-1 renal = test system: CAKI-1 renal
A549 NSCLC = test system: A549 NSCLC
MOLT-4 leukemia = test system: MOLT-4 leukemia
A498 renal = test system: A498 renal
HOP-18 NSCLC = test system: HOP-18 NSCLC
LXFL 529 NSCLC = test system: LXFL 529 NSCLC
K-562 leukemia = test system: K-562 leukemia
COLO 205 colon = test system: COLO 205 colon
RXF 393 renal = test system: RXF 393 renal
IGROV1 ovarian = test system: IGROV1 ovarian
786-0 renal = test system: 786-0 renal
CCRF-CEM leukemia = test system: CCRF-CEM leukemia
DLD-1 colon = test system: DLD-1 colon
SK-MEL-28 melanoma = test system: SK-MEL-28 melanoma
DMS 273 small cell lung = test system: DMS 273 small cell lung
OVCAR-3 ovarian = test system: OVCAR-3 ovarian
XF 498 CNS = test system: XF 498 CNS
SF-295 CNS = test system: SF-295 CNS
RPMI-8226 leukemia = test system: RPMI-8226 leukemia
HT29 colon = test system: HT29 colon
HCT-15 colon = test system: HCT-15 colon
RXF-631 renal = test system: RXF-631 renal
M14 melanoma = test system: M14 melanoma
SK-MEL-2 melanoma = test system: SK-MEL-2 melanoma
HCT-116 colon = test system: HCT-116 colon
MALME-3M melanoma = test system: MALME-3M melanoma
NCI-H522 lung = test system: NCI-H522 lung
HOP-62 NSCLC = test system: HOP-62 NSCLC
ACHN renal = test system: ACHN renal
UACC-257 melanoma = test system: UACC-257 melanoma
SK-MEL-5 melanoma = test system: SK-MEL-5 melanoma
EKVX NSCLC = test system: EKVX NSCLC
HOP-92 NSCLC = test system: HOP-92 NSCLC
TK-10 renal = test system: TK-10 renal
OVCAR-5 ovarian = test system: OVCAR-5 ovarian
HL-60(TB) leukemia = test system: HL-60(TB) leukemia
KM12 colon = test system: KM12 colon
SN12C renal = test system: SN12C renal
OVCAR-4 ovarian = test system: OVCAR-4 ovarian
NCI-H226 lung = test system: NCI-H226 lung
U251 CNS = test system: U251 CNS
HCC-2998 colon = test system: HCC-2998 colon
M19-MEL melanoma = test system: M19-MEL melanoma
KM20L2 colon = test system: KM20L2 colon
SNB-19 CNS = test system: SNB-19 CNS
LOX IMVI melanoma = test system: LOX IMVI melanoma
SR leukemia = test system: SR leukemia
UACC-62 melanoma = test system: UACC-62 melanoma
SNB-78 CNS = test system: SNB-78 CNS
DMS 114 small cell lung = test system: DMS 114 small cell lung

`CCN(CC)CCOc1ccc(C(=C2CCCCC2)c2ccc(OCCN(CC)CC)cc2)cc1` showed a TGI (OVCAR-8 ovarian) of 3.13 µM, a TGI (SNB-75 CNS) of 2.94 µM and a TGI (SW-620 colon) of 2.5 µM. The TGI (NCI-H460 lung) was 2.94 µM, the TGI (SK-OV-3 ovarian) was 3.52 µM and the TGI (UO-31 renal) was 2.96 µM. It also gave a TGI (SF-268 CNS) of 3.23 µM, a TGI (NCI-H23 lung) of 3.56 µM and a TGI (SF-539 CNS) of 2.96 µM. The TGI (CAKI-1 renal) was 3.7 µM, the TGI (A549 NSCLC) was 3.16 µM and the TGI (MOLT-4 leukemia) was 2.59 µM. The TGI (A498 renal) was 3.8 µM, the TGI (HOP-18 NSCLC) was 8.01 µM and the TGI (LXFL 529 NSCLC) was 3.06 µM. For the same compound, the TGI (K-562 leukemia) was 1.02 µM, the TGI (COLO 205 colon) was 2.7 µM and the TGI (RXF 393 renal) was 3.14 µM. The TGI (IGROV1 ovarian) was 3.58 µM, the TGI (786-0 renal) was 2.69 µM and the TGI (CCRF-CEM leukemia) was 3.25 µM. It also gave a TGI (DLD-1 colon) of 4.52 µM, a TGI (SK-MEL-28 melanoma) of 2.64 µM and a TGI (DMS 273 small cell lung) of 2.93 µM. For the same compound, the TGI (OVCAR-3 ovarian) was 3.62 µM, the TGI (XF 498 CNS) was 2.29 µM and the TGI (SF-295 CNS) was 3.3 µM. The TGI (RPMI-8226 leukemia) was 4.94 µM, the TGI (HT29 colon) was 2.32 µM and the TGI (HCT-15 colon) was 2.91 µM. The TGI (RXF-631 renal) was 2.82 µM, the TGI (M14 melanoma) was 2.91 µM and the TGI (SK-MEL-2 melanoma) was 3.52 µM. The TGI (HCT-116 colon) was 2.54 µM, the TGI (MALME-3M melanoma) was 3.13 µM and the TGI (NCI-H522 lung) was 3.29 µM. The TGI (HOP-62 NSCLC) was 3.27 µM, the TGI (ACHN renal) was 3.18 µM and the TGI (UACC-257 melanoma) was 3.32 µM. It also gave a TGI (SK-MEL-5 melanoma) of 2.95 µM, a TGI (EKVX NSCLC) of 3.36 µM and a TGI (HOP-92 NSCLC) of 3.94 µM. For the same compound, the TGI (TK-10 renal) was 2.89 µM, the TGI (OVCAR-5 ovarian) was 3.37 µM and the TGI (HL-60(TB) leukemia) was 2.56 µM. The TGI (KM12 colon) was 2.57 µM, the TGI (SN12C renal) was 3.09 µM and the TGI (OVCAR-4 ovarian) was 4.77 µM. The TGI (NCI-H226 lung) was 4.26 µM, the TGI (U251 CNS) was 3.1 µM and the TGI (HCC-2998 colon) was 2.62 µM. For the same compound, the TGI (M19-MEL melanoma) was 3.08 µM, the TGI (KM20L2 colon) was 2.55 µM and the TGI (SNB-19 CNS) was 4.03 µM. For the same compound, the TGI (LOX IMVI melanoma) was 2.69 µM.
`COc1ccc(/C(C)=N/NC(N)=S)c(OC)c1` showed a TGI (OVCAR-8 ovarian) of over 100 µM, a TGI (SNB-75 CNS) of over 100 µM and a TGI (SW-620 colon) of over 100 µM. The TGI (NCI-H460 lung) was over 100 µM, the TGI (SR leukemia) was over 100 µM and the TGI (SK-OV-3 ovarian) was over 100 µM. The TGI (UO-31 renal) was over 100 µM, the TGI (SF-268 CNS) was over 100 µM and the TGI (NCI-H23 lung) was over 100 µM. It also gave a TGI (SF-539 CNS) of over 100 µM, a TGI (CAKI-1 renal) of over 100 µM and a TGI (A549 NSCLC) of over 100 µM. For the same compound, the TGI (MOLT-4 leukemia) was over 100 µM, the TGI (A498 renal) was over 100 µM and the TGI (UACC-62 melanoma) was over 100 µM. For the same compound, the TGI (HOP-18 NSCLC) was over 100 µM, the TGI (LXFL 529 NSCLC) was over 100 µM and the TGI (SNB-78 CNS) was over 100 µM. For the same compound, the TGI (K-562 leukemia) was over 100 µM, the TGI (COLO 205 colon) was over 100 µM and the TGI (RXF 393 renal) was over 100 µM. It also gave a TGI (IGROV1 ovarian) of over 100 µM, a TGI (786-0 renal) of over 100 µM and a TGI (CCRF-CEM leukemia) of over 100 µM. For the same compound, the TGI (DLD-1 colon) was over 100 µM, the TGI (SK-MEL-28 melanoma) was over 100 µM and the TGI (OVCAR-3 ovarian) was over 100 µM. The TGI (XF 498 CNS) was over 100 µM, the TGI (SF-295 CNS) was over 100 µM and the TGI (RPMI-8226 leukemia) was over 100 µM. The TGI (HT29 colon) was over 100 µM, the TGI (HCT-15 colon) was over 100 µM and the TGI (RXF-631 renal) was over 100 µM. The TGI (M14 melanoma) was over 100 µM, the TGI (SK-MEL-2 melanoma) was over 100 µM and the TGI (HCT-116 colon) was over 100 µM. For the same compound, the TGI (DMS 114 small cell lung) was over 100 µM, the TGI (MALME-3M melanoma) was over 100 µM and the TGI (NCI-H522 lung) was 62.3 µM. For the same compound, the TGI (HOP-62 NSCLC) was over 100 µM, the TGI (ACHN renal) was over 100 µM and the TGI (UACC-257 melanoma) was over 100 µM. It also gave a TGI (SK-MEL-5 melanoma) of over 100 µM, a TGI (EKVX NSCLC) of over 100 µM and a TGI (HOP-92 NSCLC) of over 100 µM. The TGI (TK-10 renal) was over 100 µM, the TGI (OVCAR-5 ovarian) was over 100 µM and the TGI (HL-60(TB) leukemia) was over 100 µM. It also gave a TGI (KM12 colon) of over 100 µM, a TGI (SN12C renal) of over 100 µM and a TGI (NCI-H226 lung) of over 100 µM. For the same compound, the TGI (U251 CNS) was over 100 µM, the TGI (HCC-2998 colon) was over 100 µM and the TGI (M19-MEL melanoma) was over 100 µM. For the same compound, the TGI (KM20L2 colon) was over 100 µM, the TGI (SNB-19 CNS) was over 100 µM and the TGI (LOX IMVI melanoma) was over 100 µM.
